# Reference: patent US20260248783A1 (ASCLETIS BIOSCIENCE CO., LTD., priority 2021, published 2026)
# What was measured:
# [1] = molecular target: T1, PD-1/PD-L1 (Homo sapiens, UniProt Q9NZQ7); experiment: PD-1/PD-L1 Homogeneous Time-Resolved Fluorescence (HTRF) Binding Assay; conditions: PD-1/PD-L1 HTRF activity; 3 nM PD1, 10 nM PD-L1, 25° C.
# T1 construct: Recombinant human PD-L1 protein (19-238) with a Histag at the C-terminus; purchased AcroBiosystems PD1-H5229 (PD-L1); PD1-H5257 (PD-1)
# Summary of the method: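 Human PD-L1 (19-238, His-tag) 10 nM and PD-1 (25-167, Fc-tag) 3 nM preincubated 40 min with inhibitor in PBS pH 7.4, 0.05% Tween-20, 0.1% BSA, 1% DMSO, 25 °C. Eu-anti-human IgG (1 nM) and anti-His-APC (20 nM) added, 60 min, 665/620 nm ratio; IC50 from percent control activity versus log concentration.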
# [2] = system: PDL1; experiment: PDL1 Jurkat-NFAT Reporter Assay; type: cell-based; conditions: Homo sapiens; Hep3B-OS8-hPDL1 with Jurkat-NFAT-PD1 cells, 6 hours, luciferase
# Procedure: Example 109. PDL1 Jurkat-NFAT Reporter Assay
# Preparation of Hep3B-OS8-hPDL1
# (§1) 1. Hep3B-OS8-hPDL1 cells were cultured in 1640 medium supplemented with 10% fetal bovine serum, 1% penicillin and streptomycin, in which 100 μg/mL G418 and Hygromycin B were also added.
# 2. Cells were re-suspended with RPMI 1640 medium containing 10% FBS and the cell density was adjusted to 1.25×10^5 cells/mL.
# 3. Cells were seeded into 96-well flat bottom plate (1.25×10^4 cells/100 μL/well).
# b. Compounds solutions preparation
# 4. Removed the medium from pre-plated Hep3B-OS8-PDL1 cells. Washed once with 200 μL Assay Medium.
# 5. Prepared the Compounds dilutions in RPMI 1640 medium with 10% FBS according to the Layout.
# 6. Added compounds into each well in a volume of 50 μL in 9 concentrations ([…])}. Keytruda will be included as positive control at the concentration of 5 μg/mL.
# 7. Incubated for 20-30 min at 37° C., 5% CO2.
# c. Preparation of Jurkat-NFAT-PD1
# 8. Jurkat-NFAT-PD1 cells were cultured in 1640 medium supplemented with 10% fetal bovine serum, 1% penicillin and streptomycin, in which 1000 μg/mL Hygromycin B and […] puromycin were also added.
# 9. On the second day of assay, the cells were re-suspended with RPMI 1640 medium containing 10% FBS and the cell density was adjusted to 2.5×10^5 cells/mL.
# 10. […]
# [3] = molecular target: T2, extracellular domains of PD-L1 (Homo sapiens, UniProt Q9NZQ7); experiment: PD-L1 Dimerization; type: biochemical; conditions: PD-L1-Eu and PD-L1-A2, ratio 665 nm/615 nm
# T2 construct: specifically dimerize the extracellular domains of PD-L1
# Procedure: Example 108. PD-L1 Dimerization
# Compounds were tested in biochemical protein-protein interaction assays to determine if they can specifically dimerize the extracellular domains of PD-L1. • (1) Diluted cpd 1:3 in succession in DMSO for each column for 10 samples • (2) Transferred 0.2 μL cpds solution in each row to 384 assay plate using Echo, each column containing 2 replicates • (3) Added 20 μL prepared mixture include PD-L1-Eu and PD-L1-A2 solution to assay plate, centrifuged at 1000 rpm for 1 min. • (4) Incubated at 25° C. for […]. • (5) Read fluorescence signal on Envision 2104 plate reader. • (6) Read the Ratio (665 nm/615 nm) signal on Envision. • (7) Analyzed the raw data using the equation (V. Data analysis)
# [4] = system: Hep3B-OS8-hPDL1 and T cells; experiment: Hep3B-OS8-hPDL1 and T Cells Co-Culture Assay (IFN-γ by ELISA); type: cell-based; conditions: T-cell, Hep3B-OS8-hPDL1 and human CD3+ T cells, 72 hours, read-out: Tumor and T Cell EC50
# Procedure: Example 110. Hep3B-OS8-hPDL1 and T Cells Co-Culture Assay
# as §1
# 2. Hep3B-OS8-hPDL1 cells were harvested and treated with 10 μg/mL mitomycin C at 37° C. for 1.5 h, and the cells were then washed thoroughly with PBS for four times.
# 3. Cells were re-suspended with RPMI 1640 medium containing 10% FBS and the cell density was adjusted to 5×10^5 cells/mL.
# 4. Cells were seeded into 96-well flat bottom plate (2.5×10^4 cells/50 μL/well).
# b. CD3+ T cells isolation (30 mL blood)
# 5. The human blood sample from an individual donor was diluted by the same volume of sterile PBS, for instance add 25 mL sterile PBS into 25 mL fresh whole blood and mix sufficiently by gentle shake.
# 6. Transferred 15 mL Lymphoprep medium into a new 50 mL centrifuge tube.
# 7. Added the diluted blood sample as soft as possible onto the surface of the Ficoll medium to make sure there is a clear dividing line between the two liquids, and the volume ratio between Ficoll and diluted blood (30 mL) is 1:2.
# 8. Moved the tube gently to centrifuge, at 1000×g, 25 min, 20° C., with the acceleration (5) and Min deceleration (0) settings during the centrifugation.
# 9. Four interfaces in all could be observed after the centrifugation, which are layers of plasma, mononuclear cells, the Ficoll medium and RBCs from top to bottom, and move the tube as gently as possible so as keep the four interfaces separated. Absorbed and transferred the second layer of mononuclear cells into another new sterile centrifuge tube carefully, and absorbed certain volume of plasma instead of the Ficoll medium if inevitable.
# 10. Added sterile PBS of the three times the volume of PBMCs in the tube with PBMC.
# 11. Washed the cells twice with 5-10 mL PBS before cell counting with cytometer. Centrifuge at 350×g, 10 min, 20° C. With the acceleration (5) and deceleration (5) settings during the centrifugation.
# 12. Resuspended the cells with recommended medium and adjust the density of the PBMCs to the final concentration of 5×10^7 cells/mL.
# 13. Isolated CD3+ T cells with EasySep™ Human T Cell Isolation Kit (STEMCELL Technologies #17951), and the cells were seeded into 96-well flat bottom plate (5×10^4 cells/100 μL/well). c. Compounds solutions preparation
# 14. Prepared the Compounds dilutions in RPMI 1640 medium with 10% FBS according to the Layout. 15. Added compounds into each well in a volume of 50 μL. {3 compounds (GLC01-258, GLC01-269, GLC01-465) in 7 concentrations (0.03, 0.1, 0.3, 1, 3, 10 and 30 μM) and 6 compounds (GLC01-411, GLC01-292, GLC01-445, GLC01-475, GLC01-470 and GLC01-468) in the same concentration (1 μM)}.
# 16. Keytruda was included as positive control, the concentration was 5 μg/mL. 17. Incubated for 72 hours at 37° C., 5% CO2.
# 18. Collected supernatant by centrifugation and measure IFN-γ by ELISA.
# T1 sequence (Q9NZQ7 19-238): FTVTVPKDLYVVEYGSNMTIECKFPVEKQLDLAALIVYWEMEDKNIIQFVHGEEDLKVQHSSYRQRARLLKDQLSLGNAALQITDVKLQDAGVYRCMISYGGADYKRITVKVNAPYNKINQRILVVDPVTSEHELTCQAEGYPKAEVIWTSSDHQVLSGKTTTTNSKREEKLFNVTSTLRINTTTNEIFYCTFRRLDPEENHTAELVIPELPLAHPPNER
# T2 sequence (Q9NZQ7 19-238 limits assumed): as the sequence (Q9NZQ7 19-238) above
IC50 [1],EC50 [2],EC50 [3],EC50 [4],SMILES
< 10 nM,< 500 nM,,,"O=C1CC[C@@H](Cn2cnn3cc(-c4cccc(-c5cccc(-c6cc7c(=O)n(C[C@@H]8CCC(=O)N8)cnn7c6)c5Cl)c4Cl)cc3c2=O)N1 [Compound 1, 6,6′-(2,2′-dichloro-[1,1′-biphenyl]-3,3′-diyl)bis(3-((5-oxopyrrolidin-2-yl)methyl)pyrrolo[2,1-f][1,2,4]triazin-4(3H)-one)]"
10 to 100 nM,≥ 500 nM,,,"Cn1c(CNC[C@@H]2CCC(=O)N2)cn2cc(-c3cccc(-c4cccc(-c5cc6c(=O)n(C)c(CNC[C@@H]7CCC(=O)N7)cn6c5)c4Cl)c3Cl)cc2c1=O [Compound 74, 7,7′-(2,2′-dichloro-[1,1′-biphenyl]-3,3′-diyl)bis(2-methyl-3-(((((S)-5-oxopyrrolidin-2-yl)methyl)amino)methyl)pyrrolo[1,2-a]pyrazin-1(2H)-one)]"
10 to 100 nM,,< 50 nM,50 to 100 nM,"Cn1c(C[C@@H]2CCCN2)nn2cc(-c3cccc(-c4cccc(-c5cc6c(=O)n(C)c(C[C@@H]7CCCN7)nn6c5)c4Cl)c3Cl)cc2c1=O [Compound 76, 6,6′-(2,2′-dichloro-[1,1′-biphenyl]-3,3′-diyl)bis(3-methyl-2-(((S)-pyrrolidin-2-yl)methyl)pyrrolo[2,1-f][1,2,4]triazin-4(3H)-one)]"
10 to 100 nM,,50 to 100 nM,< 50 nM,Cc1cn2nc(-c3cccc(-c4cccc(-c5cc6c(=O)n(CCNC7(C(=O)O)CC(O)C7)c(C)cn6n5)c4Cl)c3Cl)cc2c(=O)n1CCNC1(C(=O)O)CC(O)C1 (stereo not shown) [Compound 85]
